{"source": "paper PMC8151276", "about": "“An Integrated Approach toward NanoBRET Tracers for Analysis of GPCR Ligand Engagement” (Molecules, 2021)", "key": {"ADRA2C": {"target": "T1, ADRA2C (Homo sapiens, UniProt P18825)", "T1 construct": "purchased Promega (in-house HiBiT-GPCR construct library, NanoBRET)", "T1 sequence (P18825 1-462)": "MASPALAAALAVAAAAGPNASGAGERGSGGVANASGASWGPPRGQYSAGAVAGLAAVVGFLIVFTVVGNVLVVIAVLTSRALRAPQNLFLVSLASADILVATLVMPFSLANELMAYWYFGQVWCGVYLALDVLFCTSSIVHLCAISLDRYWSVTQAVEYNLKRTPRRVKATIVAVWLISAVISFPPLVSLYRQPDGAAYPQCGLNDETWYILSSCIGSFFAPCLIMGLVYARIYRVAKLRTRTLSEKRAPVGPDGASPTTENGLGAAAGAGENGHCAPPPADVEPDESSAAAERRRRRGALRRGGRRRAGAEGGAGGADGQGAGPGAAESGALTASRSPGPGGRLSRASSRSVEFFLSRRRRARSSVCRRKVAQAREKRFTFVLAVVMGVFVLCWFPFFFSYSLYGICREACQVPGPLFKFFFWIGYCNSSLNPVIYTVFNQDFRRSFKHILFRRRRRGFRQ", "assay": "NanoBRET screen HiBiT-ADRA2C in HEK293", "type": "binding", "protocol": "(§1) Each tracer candidate was screened across the entire library of HiBiT-GPCR constructs using NanoBRET as the detection modality. As depicted in Figure 4A, the specificity of interactions was evaluated through decrease in BRET due to competitive displacement of a bound tracer by excess parental compound. Each tracer was analyzed for binding to each HiBiT-GPCR fusion in the absence and in the presence of competing parental compound. Briefly, HEK293 cells were transfected with HiBiT-GPCR constructs diluted into promoterless DNA to reduce expression and maximize translocation to the cell surface. Each tracer candidate was then screened at concentrations of 1 μM and 0.1 μM across cells expressing these fusions. Cells were treated for 1.5 h with tracer either alone or in the presence of 20 μM competing parental compound (i.e., control). BRET was measured upon addition of purified LgBiT and subsequent complementation with HiBiT genetically fused to a GPCR. The specificity of interactions was assessed through a decrease in BRET signal due to competitive displacement of the bound tracer. To further gauge the robustness of these interactions, the fold response over the control (i.e., BRETtracer/BRETcontrol) was calculated. We chose a 1.5-fold response, which translates to ≥7-fold signal over noise as the minimal threshold required to score an interaction as positive. […]. Below we highlight the screening results obtained for our exemplary fluorescent tracers based on Clozapine, Amitriptyline and AZD1283.\n(§2) HiBiT-GPCR DNA constructs were diluted in 10 mM Tris pH 8 to a final concentration of 0.01 μg/μL, arrayed in 96-well plates and stored at −20 °C. For transfection, HEK293 cells were suspended in Opti-MEM (without phenol red) supplemented with 2% fetal bovine serum (Seradigm) and 100 units/mL penicillin–streptomycin (Gibco) at a final concentration of 220,000 cells/mL and dispensed into white 96-well plates at 90 μL/well. Subsequent transfections and screens were carried using an Agilent Bravo Automated Liquid Handling Platform. First, the 96-well HiBiT DNA arrays were diluted 25-fold in Opti-MEM (without serum or phenol red) to a final concentration of 0.0004 μg/μL and 20 μL of the diluted DNAs were transferred into new 96-well plates. Next, promoterless carrier DNA (1 μg/μL) was diluted 25-fold (0.04 μg/μL) and then dispensed into the diluted arrays at 20 μL/well. Following brief mixing, Viafect transfection reagent (Promega) diluted 16-fold into Opti-MEM was dispensed into the plates at 40 μL/well. After mixing by pipetting, plates were incubated for 10 min on the pipetting station deck. The DNA-transfection reagent complexes were then added to plates containing cells. To facilitate the screen, 10 μL of DNA-transfection reagent complexes were added in duplicates to the top 4 and bottom 4 rows, resulting in two identical 48-well arrays per plate. Plates with transfected cells were incubated for 18–20 h at 37 °C/5% CO2. A screen of each tracer across the entire library using two different concentrations requires duplicate plates of transfected cells. Depending on the number of tracers being screened, transfections can be scaled up using the same ratios. The next day, for each tracer, four 20× screening solutions in tracer dilution buffer (Promega) were prepared: two duplicates at final concentration of 20 μM and two duplicates at a final concentration of 2 μM. A competing unmodified compound was added to one of each duplicate at a final concentration of 400 μM. The four resulting solutions were diluted 4-fold in Opti-MEM without serum or phenol red to generate 5× solutions (5 µM and 0.5 µM tracer +/− 100 μM competing compound). To screen the library, a BioTek MultiFlo FX liquid dispenser was used to dispense 22.5 µL of tracer solution to the top 4 rows and 22.5 µL tracer + competing compound solution to the 4 bottom rows. Plates were briefly mixed on an orbital shaker and incubated for 1.5 h at room temperature. […]"}, "NPY2R": {"target": "T2, NPY2R (Homo sapiens, UniProt P49146)", "T2 construct": "purchased Promega (in-house HiBiT-GPCR construct library, NanoBRET)", "T2 sequence (P49146 1-381)": "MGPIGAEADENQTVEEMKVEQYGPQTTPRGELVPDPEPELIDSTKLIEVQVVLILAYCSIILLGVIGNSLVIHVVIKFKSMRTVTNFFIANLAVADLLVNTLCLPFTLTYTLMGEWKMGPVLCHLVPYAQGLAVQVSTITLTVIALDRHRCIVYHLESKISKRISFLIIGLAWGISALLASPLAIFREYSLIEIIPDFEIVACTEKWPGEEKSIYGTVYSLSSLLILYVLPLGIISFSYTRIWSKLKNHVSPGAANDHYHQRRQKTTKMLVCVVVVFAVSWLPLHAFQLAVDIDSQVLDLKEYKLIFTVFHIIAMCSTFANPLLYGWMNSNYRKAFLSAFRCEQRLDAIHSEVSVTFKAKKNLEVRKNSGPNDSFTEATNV", "assay": "NanoBRET screen HiBiT-NPY2R in HEK293", "type": "binding", "protocol": "as §1, §2"}, "[1]": {"details": "tracer at 0.1μM, listed as amitriptyline-b-2-NB590"}, "[2]": {"details": "tracer at 1μM, listed as amitriptyline-b-2-NB590"}}, "data": [{"smiles": "CCOC(=O)c1cc(C#N)c(N2CCC(C(=O)NS(=O)(=O)Cc3ccccc3/C=C/C(=O)NCCNC(=O)CCc3ccc4n3[B-](F)(F)[N+]3=C(c5ccc[nH]5)C=CC3=C4)CC2)nc1C", "note": "[AZD1283-1-NB590]", "values": [{"measurement": "NanoBRET Fold Response", "setting": "ADRA2C; ADRA2C, 0.1μM", "value": 1.05}, {"measurement": "NanoBRET Fold Response", "setting": "ADRA2C; ADRA2C, 1μM", "value": 1.04}, {"measurement": "NanoBRET Fold Response", "setting": "NPY2R; NPY2R, 0.1μM", "value": 1.04}, {"measurement": "NanoBRET Fold Response", "setting": "NPY2R; NPY2R, 1μM", "value": 1.07}]}, {"smiles": "N#CN/C(=N\\CCNC(=O)c1ccc(N)cc1)NCCCOc1cccc(CN2CCCCC2)c1", "note": "[Aminopotentidine (unmodified)]", "values": [{"measurement": "NanoBRET Fold Response", "setting": "ADRA2C; ADRA2C, other tracers/Aminopotentidine (unmodified), 0.1μM", "value": 1.06}, {"measurement": "NanoBRET Fold Response", "setting": "ADRA2C; ADRA2C, other tracers/Aminopotentidine (unmodified), 1μM", "value": 1.11}]}, {"smiles": "N#CN=C(NCCCOc1cccc(CN2CCCCC2)c1)NCCNC(=O)CCOCCOCCOCCOCCNC(=O)CCc1ccc2n1[B-](F)(F)[N+]1=C(c3ccc[nH]3)C=CC1=C2", "note": "[Aminopotentidine-2-NB590]", "values": [{"measurement": "NanoBRET Fold Response", "setting": "ADRA2C; ADRA2C, tracer 0.1μM", "value": 1.35}, {"measurement": "NanoBRET Fold Response", "setting": "ADRA2C; ADRA2C, tracer 1μM", "value": 1.25}, {"measurement": "NanoBRET Fold Response", "setting": "NPY2R; NPY2R, tracer 0.1μM", "value": 0.98}, {"measurement": "NanoBRET Fold Response", "setting": "NPY2R; NPY2R, tracer 1μM", "value": 1.00}]}, {"smiles": "CN(C)CCC=C1c2ccccc2CCc2ccc(C(=O)NCCNC(=O)CCOCCOCCOCCOCCNC(=O)CCc3ccc4n3[B-](F)(F)[N+]3=C(c5ccc[nH]5)C=CC3=C4)cc21", "note": "[Amitriptyline-a-2-NB590]", "values": [{"measurement": "NanoBRET Fold Response", "setting": "ADRA2C; tracer at 1μM", "value": 1.37}, {"measurement": "NanoBRET Fold Response", "setting": "NPY2R; tracer at 0.1μM", "value": 0.99}, {"measurement": "NanoBRET Fold Response", "setting": "NPY2R; tracer at 1μM", "value": 0.98}]}, {"smiles": "CN(C)CCC=C1c2ccccc2CCc2ccc(C(=O)NCCNC(=O)CCOCCOCCOCCOCCNC(=O)CCc3ccc4n3[B-](F)(F)[N+]3=C(c5ccc[nH]5)C=CC3=C4)cc21", "note": "[Amitriptyline-b-2-NB590]", "values": [{"measurement": "NanoBRET Fold Response", "setting": "ADRA2C; [1]", "value": 1.08}, {"measurement": "NanoBRET Fold Response", "setting": "ADRA2C; [2]", "value": 1.08}, {"measurement": "NanoBRET Fold Response", "setting": "NPY2R; [1]", "value": 1.09}, {"measurement": "NanoBRET Fold Response", "setting": "NPY2R; [2]", "value": 0.88}]}, {"smiles": "CN(CCC=C1c2ccccc2CCc2ccccc21)C(=O)CCOCCOCCOCCOCCNC(=O)CCc1ccc2n1[B-](F)(F)[N+]1=C(c3ccc[nH]3)C=CC1=C2", "note": "[Amitriptyline-e-2-NB590]", "values": [{"measurement": "NanoBRET Fold Response", "setting": "ADRA2C; tracer at 1μM", "value": 1.00}]}, {"smiles": "COc1ccc2c(n1)c(CCNC(C)=O)cn2CCNC(=O)CCc1ccc2n1[B-](F)(F)[N+]1=C(c3ccc[nH]3)C=CC1=C2", "note": "[Azamelatonin-1-NB590]", "values": [{"measurement": "NanoBRET Fold Response", "setting": "ADRA2C; 0.1μM tracer", "value": 1.01}, {"measurement": "NanoBRET Fold Response", "setting": "ADRA2C; 1μM tracer", "value": 0.79}, {"measurement": "NanoBRET Fold Response", "setting": "NPY2R; 0.1μM tracer", "value": 1.19}, {"measurement": "NanoBRET Fold Response", "setting": "NPY2R; 1μM tracer", "value": 0.85}]}, {"smiles": "COc1ccc2[nH]c(-c3ccc(CNC(=O)CCOCCOCCOCCOCCNC(=O)CCc4ccc5n4[B-](F)(F)[N+]4=C(c6ccc[nH]6)C=CC4=C5)cc3)c(CCNC(C)=O)c2n1", "note": "[AzomelatoninICO9-2-NB590]", "values": [{"measurement": "NanoBRET Fold Response", "setting": "ADRA2C; 0.1μM tracer", "value": 1.08}, {"measurement": "NanoBRET Fold Response", "setting": "ADRA2C; 1μM tracer", "value": 1.17}, {"measurement": "NanoBRET Fold Response", "setting": "NPY2R; 0.1μM tracer", "value": 0.99}, {"measurement": "NanoBRET Fold Response", "setting": "NPY2R; 1μM tracer", "value": 0.88}]}, {"smiles": "O=C(CCOCCOCCOCCOCCNC(=O)CCc1ccc2n1[B-](F)(F)[N+]1=C(c3ccc[nH]3)C=CC1=C2)NCCCN1CCN(C2=Nc3cc(Cl)ccc3Nc3ccccc32)CC1", "note": "[Clozapine-a-2-NB590]", "values": [{"measurement": "NanoBRET Fold Response", "setting": "ADRA2C; ADRA2C, 0.1μM tracer", "value": 1.80}, {"measurement": "NanoBRET Fold Response", "setting": "ADRA2C; ADRA2C, 1μM tracer", "value": 1.62}, {"measurement": "NanoBRET Fold Response", "setting": "NPY2R; NPY2R, 0.1μM tracer", "value": 0.94}, {"measurement": "NanoBRET Fold Response", "setting": "NPY2R; NPY2R, 1μM tracer", "value": 1.11}]}]}
